Data: patent US20200390128A1 (Lennham Pharmaceuticals, Inc., priority 2019, published 2020)
Like-named read-outs stand apart in the source and are kept apart here.

Key:
[1] = in vivo; details: male, Sprague-Dawley, rat, plasma, po, 2 mg/kg
Protocol: (§1) Serial blood samples were collected from three animals per group per timepoint prior to dosing and at 0.25, 0.5, 1, 2, 3 4, 6, 8, 10, 12, and 14-hours post dose.
(§2) Animals were fasted overnight prior to dose administration. Water was provided ad libitum. Food was returned after the collection of the 4-hour samples.
(§3) Doses (rounded to the nearest 0.001 mL) were calculated based on the pretreatment body weight (kg) and a dose volume of 10 mL/kg.
(§4) Serial blood samples (˜300 μL) were collected from three animals per group per timepoint into tubes containing sodium heparin prior to dosing and at 0.25, 0.5, 1, 2, 3, 4, 6, 8, 10, 12, and 14-hours post dose. […] Blood samples were stored on wet ice until being processed for plasma via centrifugation (3500 g for 10 minutes at 5° C.) within 30 minutes of collection.
(§5) The concentration-time data were analyzed to fit an extra-vascular (oral gavage) dosing plasma analysis model (200) using the software WinNonlin Phoenix version 6.3 (Pharsight).
(§6) Half-lives are reported if the correlation for the regression line, as measured by r squared, is ≥0.9, when rounded.

[2] = Plasma pharmacokinetics after a single oral (gavage) dose in fasted male Sprague-Dawley rats, LC-MS/MS; details: for Concentration in plasma, Mean: fasted male Sprague-Dawley rats, n = 3/time point; for measurable plasma concentrations: after 2 mg/kg oral; for AUClast / T 1/2 (terminal half life): fasted male Sprague Dawley rats;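 for all read-outs here: plasma from heparinized blood sampled up to 14 h post dose, three rats per timepoint, parameters by non-compartmental analysis of mean concentration-time data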
Protocol: as §1, §2, §3, §4, §5, §6

[3] = Brain concentrations and brain pharmacokinetics after a single oral (gavage) dose in fasted male Sprague-Dawley rats, LC-MS/MS; assay type: in vivo; details: for measurable brain concentrations: after 2 mg/kg oral; for concentration at 1 h: 1 hour post dose; for concentration at 4 h: 4 hour post dose; for concentration at 14 h: 14 hour post dose
Protocol: Water was provided ad libitum.
Immediately after the 1, 4, 8 and 14-hour blood collections, three animals/group were euthanized and the brain was dissected out of each rat. The brains were rinsed with saline and dried, placed in pre-weighed conical tubes, and flash frozen in liquid nitrogen. Brain weights were calculated for each sample.

[4] = plasma, molecular weight corrected (caffeine values multiplied by 0.956), oral gavage 2 mg/kg, rats
[5] = male, Sprague-Dawley, rat, brain, po, 2 mg/kg, oral gavage 2 mg/kg, fasted male Sprague-Dawley rats, n = 3/time point
[6] = male, Sprague-Dawley, rat, brain, po, 2 mg/kg, brain, molecular weight corrected (caffeine values multiplied by 0.956), oral gavage 2 mg/kg, rats, read-out: AUClast,corr
[7] = male, Sprague-Dawley, rat, brain, po, 2 mg/kg, brain, molecular weight corrected (caffeine values multiplied by 0.956), oral gavage 2 mg/kg, rats, read-out: Cmax,corr
[8] = male, Sprague-Dawley, rat, brain, po, 2 mg/kg, brain, oral gavage 2 mg/kg, fasted male Sprague Dawley rats, read-out: AUClast
[9] = male, Sprague-Dawley, rat, brain, po, 2 mg/kg, brain, oral gavage 2 mg/kg, fasted male Sprague Dawley rats, read-out: Cmax
[10] = male, Sprague-Dawley, rat, brain, po, 2 mg/kg, oral dose 2 mg/kg, rats, read-out: AUClast in brain
[11] = rat, brain/plasma, oral gavage 2 mg/kg, fasted male Sprague Dawley rats, read-out: Ratio Brain/Plasma Cmax
[12] = rat, brain, oral gavage 2 mg/kg, fasted male Sprague Dawley rats
[13] = rat, brain, oral gavage 2 mg/kg, fasted male Sprague Dawley rats, read-out: Ratio Brain/Plasma AUClast
[14] = in words, molecular weight corrected, oral 2 mg/kg, rats

| Compound | AUC(0-inf) [1] [ng·h/mL] | AUC(0-t) [1] [ng·h/mL] | Cmax [1] [ng/mL] | Tmax [1] [h] | concentration at 0.25 h [1] [ng/mL] | concentration at 0.5 h [1] [ng/mL] | concentration at 1 h [1] [ng/mL] | concentration at 2 h [1] [ng/mL] | concentration at 3 h [1] [ng/mL] | concentration at 4 h [1] [ng/mL] | half-life [1] [h] | measurable plasma concentrations ([2]; in words, rats) | AUCinf, corr [2, 4] [ng·h/mL] | AUClast, corr [2, 4] [ng·h/mL] | AUClast ([2]; plasma, oral gavage 2 mg/kg) [ng·h/mL] | T 1/2 (terminal half life) ([2]; plasma, oral gavage 2 mg/kg) [h] | measurable brain concentrations ([3]; in words, rats) | concentration at 1 h [3, 5] [ng/g] | concentration at 4 h [3, 5] [ng/g] | concentration at 14 h [3, 5] [ng/g] | further results |
| --- | --- | --- | --- | --- | --- | --- | --- | --- | --- | --- | --- | --- | --- | --- | --- | --- | --- | --- | --- | --- | --- |
| Cn1c(=O)c2c(ncn2C)n(C)c1=O [Caffeine, reference compound] | 16000 | 16000 | 2600 | 1 | 2420 | 2410 | 2640 | 2070 | 2030 | 1820 | 1.9 | detected in all animals evaluated at each time point through 14 hours post dose | 15296 | 15296 | 16000 | 1.9 | detected in all animals evaluated at each time point through 14 hours post dose | 1910 | 1210 | 62.6 | Concentration in plasma, Mean ([2]; 8 hour post dose, oral gavage 2 mg/kg): 849 ng/mL; Concentration in plasma, Mean ([2]; 10 hour post dose, oral gavage 2 mg/kg): 344 ng/mL; Concentration in plasma, Mean ([2]; 12 hour post dose, oral gavage 2 mg/kg): 171 ng/mL; Concentration in plasma, Mean ([2]; 14 hour post dose, oral gavage 2 mg/kg): 97.1 ng/mL; concentration at 8 h ([3]; male, Sprague-Dawley, rat, brain, po, 2 mg/kg, 8 hour post dose, oral gavage 2 mg/kg, fasted male Sprague-Dawley rats, n = 3/time point): 553 ng/g; AUC(0-t) [3, 6]: 10500 ng·h/mL; Cmax [3, 7]: 1820 ng/mL; AUC(0-t) [3, 8]: 11000 ng·h/mL; Cmax [3, 9]: 1900 ng/mL; AUC(0-t) [3, 10]: 11000 ng·h/mL; Kp [3, 11]: 0.73; AUC(0-inf) [3, 12]: 11000 ng·h/mL; Tmax [3, 12]: 1 h; Kp [3, 13]: 0.69 |
| [2H]C([2H])([2H])n1c(=O)c2c(ncn2C([2H])([2H])[2H])n(C([2H])([2H])[2H])c1=O [Compound D9-Caffeine, D9-caffeine] | 27000 | 22000 | 2400 | 3 | 1720 | 1740 | 2090 | 2340 | 2360 | 2270 | 5 | detected in all animals evaluated at each time point through 14 hours post dose | 27000 | 22000 | 22000 | 5 | detected in all animals evaluated at each time point through 14 hours post dose | 1540 | 1640 | 463 | concentration at 6 h [1]: 1790 ng/mL; concentration at 8 h [1]: 1550 ng/mL; concentration at 12 h [1]: 897 ng/mL; concentration at 14 h [1]: 682 ng/mL; plasma Cmax compared with caffeine [2, 14]: similar; systemic (AUC) exposure in plasma compared with a corresponding dose of caffeine ([2]; in words, oral 2 mg/kg, rats): higher; half-life compared with a corresponding dose of caffeine ([2]; in words, plasma, oral 2 mg/kg, rats): longer; Cmax, corr [2, 4]: 2400 ng/mL; total systemic exposure (AUCinf) higher than caffeine ([2]; plasma, molecular weight corrected, oral 2 mg/kg, rats): approximately 77%; total brain exposure (AUClast,corr) higher than caffeine ([3]; brain, molecular weight corrected, oral 2 mg/kg, rats): approximately 52%; brain Cmax compared with caffeine [3, 14]: slightly lower; AUC exposure in brain compared with a corresponding dose of caffeine ([3]; in words, oral 2 mg/kg, rats): higher; AUC(0-t) [3, 6]: 16000 ng·h/mL; Cmax [3, 7]: 1600 ng/mL; AUC(0-t) [3, 8]: 16000 ng·h/mL; Cmax [3, 9]: 1600 ng/mL; AUC(0-t) [3, 10]: 16000 ng·h/mL; Kp [3, 11]: 0.67; Tmax [3, 12]: 4 h; Kp [3, 13]: 0.73 |
